Assay results as given in paper PMC11844072, “Novel 5,6-dichlorobenzimidazole derivatives as dual BRAFWT and BRAFV600E inhibitors: design, synthesis, anti-cancer activity and molecular dynamics simulations” (BMC Chemistry, 2025).

Tests used:
MALME-3M = test: NCI 60 single concentration growth inhibition; type: cell-based, human; conditions: Melanoma, 10 μM
Summary of the method: (§1)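 Read-out is SRB absorbance at 515 nm after TCA fixation (10% for adherent lines, 16% for suspension lines). Drugs were applied for 48 h following a 24 h plating period. Growth percentages came from time-zero, control and treated absorbances.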

UO-31 = test: NCI 60 single concentration growth inhibition; type: cell-based, human; conditions: UO-31, Renal cancer, 10 μM
Summary of the method: as §1

COLO 205 = test: NCI 60 single concentration growth inhibition; type: cell-based, human; conditions: COLO 205, Colon cancer; for inhibition at 10 µM: Homo sapiens, read-out: GI%
Summary of the method: as §1

HCT-15 = test: NCI 60 single concentration growth inhibition; type: cell-based, human; conditions: HCT-15, Colon cancer; for inhibition at 10 µM: Homo sapiens, read-out: GI%
Summary of the method: as §1

IGROV1 = test: NCI 60 single concentration growth inhibition; type: cell-based, human; conditions: IGROV1, Ovarian cancer, 10 μM
Summary of the method: as §1

K-562 = test: NCI 60 single concentration growth inhibition; type: cell-based, human; conditions: for inhibition at 10 µM: Homo sapiens, K562, K-562, Leukemia, read-out: GI%
Summary of the method: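 Single-dose screen: cells in RPMI 1640 with 5% FBS and 2 mM L-glutamine, pre-grown 24 h, then exposed to 10 µM compound for 48 h at 37 °C. Protein was measured by TCA fixation and sulforhodamine B staining at 515 nm, and percent growth was taken against time-zero and untreated wells.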

LOX IMVIL = test: NCI 60 single concentration growth inhibition; type: cell-based, human; conditions: Melanoma; for inhibition at 10 µM: Homo sapiens, read-out: GI%
Summary of the method: as §1

NCI-H322M [1] = test: NCI 60 single concentration growth inhibition; type: cell-based, human; conditions: Non-small cell lung cancer, 10 μM
Summary of the method: as §1

NCI-H460 = test: NCI 60 single concentration growth inhibition; type: cell-based, human; conditions: NCI-H460, Non-small cell lung cancer; for inhibition at 10 µM: Homo sapiens, read-out: GI%
Summary of the method: as §1

SNB-75 = test: NCI 60 single concentration growth inhibition; type: cell-based, human; conditions: SNB-75, CNS cancer, 10 μM
Summary of the method: as §1

SW-620 = test: NCI 60 single concentration growth inhibition; type: cell-based, human; conditions: SW-620, Colon cancer; for inhibition at 10 µM: Homo sapiens, read-out: GI%
Summary of the method: as §1

TK-10 = test: NCI 60 single concentration growth inhibition; type: cell-based, human; conditions: TK-10, Renal cancer; for inhibition at 10 µM: Homo sapiens, read-out: GI%
Summary of the method: as §1

U251 = test: NCI 60 single concentration growth inhibition; type: cell-based, human; conditions: for inhibition at 10 µM: Homo sapiens, U-251, U251, CNS cancer, read-out: GI%
Summary of the method: as §1

[2] = test system: NCI 60 cancer cell line panel; test: NCI 60 single concentration growth inhibition, panel mean; type: cell-based; conditions: Homo sapiens, mean over NCI 60 panel, read-out: Mean GI%
Experimental: (§2) The synthesized dichlorobenzimidazoles 10a–p were assayed for their influence on divers cancer cell lines according to the method presented in the Additional file A.
(§3) 5. Screening of cytotoxic activity against a panel of sixty human tumor cell lines
(§4) The selected compounds by NCI were evaluated for their anticancer activity in a two-stage process. First, these compounds were screened against the full NCI 60 cell lines panel at a single high dose of 10 µM. Then, the output from the single dose screen is reported as a mean graph. […]
(§5) at five different minimal concentrations.
(§6) Assay protocol. The human tumor cell lines of the cancer screening panel are grown in RPMI 1640 medium containing 5% fetal bovine serum and 2 mM L-glutamine. For a typical screening experiment, cells are inoculated into 96 well microtiter plates in 100 µL at plating densities ranging from 5000 to 40,000 cells/well depending on the doubling time of individual cell lines. After cell inoculation, the microtiter plates are incubated at 37 °C, 5% CO 2, 95% air and 100% relative humidity for 24 h prior to addition of the experimental drugs.
(§7) After 24 h, two plates of each cell line are fixed in situ with TCA, to represent a measurement of the cell population for each cell line at the time of drug addition (Tz). The experimental drugs are solubilized in dimethyl sulfoxide at 400-fold the desired final maximum test concentration and stored frozen prior to use. At the time of drug addition, an aliquot of frozen concentrate is thawed and diluted to twice the desired final maximum test concentration with complete medium containing 50 µg/mL gentamicin. Additional four, 10-fold or ½ log serial dilutions are made to provide a total of five drug concentrations plus control.
(§8) Aliquots of […] of these different drug dilutions are added to the appropriate microtiter wells already containing […] of medium, resulting in the required final drug concentrations.
(§9) Following drug addition, the plates are incubated for an additional 48 h at 37 °C, 5% CO 2, 95% air, and 100% relative humidity. For adherent cells, the assay is terminated by the addition of cold TCA.
(§10) Cells are fixed in situ by the gentle addition of 50 µL of cold 50% (w/v) TCA (final concentration, 10% TCA) and incubated for 60 min at 4 °C. The supernatant is discarded, and the plates are washed five times with tap water and air dried. Sulforhodamine B (SRB) solution ([…]) at 0.4% (w/v) in 1% acetic acid is added to each well, and plates are incubated for 10 min at room temperature. After staining, unbound dye is removed by washing five times with 1% acetic acid and the plates are air dried. Bound stain is subsequently solubilized with 10 mM trizma base, and the absorbance is read on an automated plate reader at a wavelength of 515 nm. For suspension cells, the methodology is […]
(§11) the same except that the assay is terminated by fixing settled cells at the bottom of the wells by gently adding 50 µl of 80% TCA (final concentration, 16% TCA). Using the seven absorbance measurements [time zero, (Tz), control growth, (C), and test growth in the presence of drug at the five concentration levels (Ti)], the percentage growth is calculated at each of the drug concentrations […]
(§12) Percentage growth inhibition is calculated as: [(Ti Tz)/(C–Tz)] x 100 for concentrations for which Ti>/=Tz and [(Ti-Tz)/Tz] x 100 for concentrations for which Ti < Tz.
(§13) Three dose response parameters are calculated for each experimental agent. Growth […]
(§14) concentration resulting in a 50% reduction in the net protein increase (as measured by SRB staining) in control cells during the drug incubation. The drug concentration resulting in total growth inhibition (TGI) is calculated from Ti = Tz. […]
(§15) reduction in the measured protein at the end of the drug treatment as compared to that at the beginning) indicating a net loss of cells following treatment is calculated from [(Ti–Tz)/Tz] x 100 =
(§16) _50. Values are calculated for each of these three parameters if the level of activity is reached; […]

EKVX = test: NCI 5-dose assay; type: cell-based; conditions: Homo sapiens, Non-small cell lung cancer
Experimental: as §2, §3, §4, §5, §6, §7, §8, §9, §10, §11, §12, §13, §14, §15, §16

MCF7 = test: NCI 5-dose assay; type: cell-based; conditions: Homo sapiens; MCF7, Breast cancer
Experimental: as §2, §3, §4, §5, §6, §7, §8, §9, §10, §11, §12, §13, §14, §15, §16

NCI-H226 = test: NCI 5-dose assay; type: cell-based; conditions: Homo sapiens; NCI-H226, Non-small cell lung cancer
Experimental: as §2, §3, §4, §5, §6, §7, §8, §9, §10, §11, §12, §13, §14, §15, §16

NCI-H322M [3] = test: NCI 5-dose assay; type: cell-based; conditions: Homo sapiens, Non-small cell lung cancer
Experimental: as §2, §3, §4, §5, §6, §7, §8, §9, §10, §11, §12, §13, §14, §15, §16

NCI-H522 = test: NCI 5-dose assay; type: cell-based; conditions: Homo sapiens; NCI-H522, Non-small cell lung cancer
Experimental: as §2, §3, §4, §5, §6, §7, §8, §9, §10, §11, §12, §13, §14, §15, §16

Compound | GI% (MALME-3M) | GI% (UO-31) [%] | inhibition at 10 µM (COLO 205) [%] | inhibition at 10 µM (HCT-15) [%] | GI% (IGROV1) | inhibition at 10 µM (K-562) [%] | inhibition at 10 µM (LOX IMVIL) [%] | GI% (NCI-H322M [1]) | inhibition at 10 µM (NCI-H460) [%] | GI% (SNB-75) | inhibition at 10 µM (SW-620) [%] | inhibition at 10 µM (TK-10) [%] | inhibition at 10 µM (U251) [%] | inhibition at 10 µM [2] [%] | GI50 (EKVX) [µM] | GI50 (MCF7) [µM] | GI50 (NCI-H226) [µM] | GI50 (NCI-H322M [3]) [µM] | GI50 (NCI-H522) [µM] | also measured
COc1ccc(-c2nc3cc(Cl)c(Cl)cc3n2CC(=O)NN=Cc2cccc(OCC(=O)O)c2)cc1 [Compound 10e, 2-(3-((2-(2-(5,6-Dichloro-2-(4-methoxyphenyl)-1H-benzo[d]imidazol-1-yl)acetyl)hydrazono)methyl)phenoxy)acetic acid] | – (GI% < 5%) | 10.58 | < 5 | < 5 | – (GI% < 5%) | < 5 | < 5 | – (GI% < 5%) | < 5 | – (GI% < 5%) | < 5 | < 5 | < 5 | < 5 |  |  |  |  |  | 
COC(=O)COc1ccc(C=NNC(=O)Cn2c(-c3ccc(OC)cc3)nc3cc(Cl)c(Cl)cc32)cc1 [Compound 10h, Methyl-2-(4-((2-(2-(5,6-dichloro-2-(4-methoxyphenyl)-1H-benzo[d]imidazol-1-yl)acetyl)hydrazono)methyl)phenoxy)acetate] |  |  | 51.5 | 40.3 |  | 31.4 | 39.5 |  | < 5 |  | < 5 | < 5 | 10.1 | 36.6 | 18.8 | 4.25 | > 82.5 | 21.3 | 14.7 | 
CCOC(=O)C(C)Oc1ccc(C=NNC(=O)Cn2c(-c3ccc(OC)cc3)nc3cc(Cl)c(Cl)cc32)cc1 (stereo not drawn) [Compound 10j, Ethyl-2-(4-((2-(2-(5,6-dichloro-2-(4-methoxyphenyl)-1H-benzo[d]imidazol-1-yl)acetyl) hydrazono)methyl)phenoxy)propanoate] | – (GI% < 5%) | 25.57 | 8.58 | 37.1 | 25.42% | 41.3 | 18.4 | – (GI% < 5%) | < 5 | 5.72% | < 5 | < 5 | 5.26 | 18.4 |  |  |  |  |  | 
COc1ccc(-c2nc3cc(Cl)c(Cl)cc3n2CC(=O)NN=Cc2ccc(OC)c(O)c2)cc1 [Compound 10k, 2-(5,6-Dichloro-2-(4-methoxyphenyl)-1H-benzo[d]imidazol-1-yl)-N'-(3-hydroxy-4-methoxybenzylidene)acetohydrazide] | 23.45% | 55.02 | 22.1 | 47.2 | 10.22% | 59.9 | 38.4 | 8.94% | 24.8 | 33.65% | 6.39 | 28 | 38 | 35.4 |  |  |  |  |  | 
COC(=O)COc1ccc(C=NNC(=O)Cn2c(-c3ccc(OC)cc3)nc3cc(Cl)c(Cl)cc32)cc1OC [Compound 10p, Methyl-2-(4-((2-(2-(5,6-dichloro-2-(4-methoxyphenyl)-1H-benzo[d]imidazol-1-yl)acetyl)hydrazono)methyl)-2-methoxyphenoxy)acetate] |  |  | 34.9 | 21.5 |  | 12.3 | 25.2 |  | < 5 |  | < 5 | 58 | < 5 | 37.6 | 18.9 | > 72.5 | > 72.5 | 22.2 | > 72.5 | 
COC(=O)COc1cc(C=NNC(=O)Cn2c(-c3ccc(OC)cc3)nc3cc(Cl)c(Cl)cc32)ccc1OC [Compound 10o, Methyl-2-(5-((2-(2-(5,6-dichloro-2-(4-methoxyphenyl)-1H-benzo[d]imidazol-1-yl)acetyl)hydrazono)methyl)-2-methoxyphenoxy)acetate] | – (GI% < 5%) | 18.26 | < 5 | 23.6 | 97.59% | 23.6 | 36.4 | 11.69% | < 5 | 27.54% | < 5 | < 5 | 6.53 | 34.6 | 89.2 | 100 | > 100 | 60.4 | > 100 | 
2-(4-((2-(2-(5,6-Dichloro-2-(4-methoxyphenyl)-1H-benzo[d]imidazol-1-yl)acetyl)hydrazono)methyl) -2-methoxyphenoxy)acetic acid [Compound 10m] | – (GI% < 5%) | 8.63 |  |  | – (GI% < 5%) |  |  | – (GI% < 5%) |  | – (GI% < 5%) |  |  |  |  |  |  |  |  |  | GI% (COLO 205; 10 μM): – (GI% < 5%); GI% (HCT-15; 10 μM): – (GI% < 5%); GI% (K-562; K-562, Leukemia, 10 μM): – (GI% < 5%); GI% (LOX IMVIL; 10 μM): – (GI% < 5%); GI% (NCI-H460; 10 μM): – (GI% < 5%); GI% (SW-620; 10 μM): – (GI% < 5%); GI% (TK-10; 10 μM): – (GI% < 5%); GI% (U251; U251, CNS cancer, 10 μM): – (GI% < 5%)
